Like-named read-outs stand apart in the source and are kept apart here.
What was measured:
[1] = system: MT-2 cells (human T cell leukemia); experiment: Cytotoxicity in MT-2 cells (flow cytometry, propidium iodide); format: cell-based; conditions: 72 hrs
Method: (§1) Method of cytotoxicity determination. MT-2 cells were incubated with drug for 72 hrs and harvested. Flow count beads (Beckman Coulter, Miami, Fla.) were added to the cell suspension followed by propidium iodide staining and analysis using flow cytometer and the 50% cytotoxic concentration (CC50) was calculated from the cell counts and viability.
as §1, with “Method” for “Method of”

HIV-1LAI = experiment: HIV antiviral assay, p24 reduction in MT-2 cells; conditions: for Selectivity index: CC50/EC50, HIV-1 in MT-2 cells
HSV-2 = HSV-2 plaque reduction assay in HFF cells; format: cell-based; conditions: for Selectivity index: HSV-2 in HFF cells; for EC50: plaque reduction, 3 days, read-out: EC50 (HSV-2 antiviral activity in HFF cells)
Method: Antiviral assay. […] Plates were allowed to incubate for 37° C. for 1 hour. […] Plates were incubated at 37° C. for 3 days and monolayers were stained with crystal violet. Plaques were counted and results are expressed as μM concentration of drug which reduced plaques by 50% versus control plates without drug. (Richards et al, Antiviral Res. 2:27, 1982)

[2] = Cytotoxicity in HFF cells (HSV-2 table); conditions: human, HFF cells
[3] = Cell proliferation assay (neutral red), normal human fibroblasts; format: cell-based; conditions: read-out: Cytotoxicity, CC50, Normal cells Human fibroblasts
Method: (§2) Method Cell Proliferation Assays: The various human fibroblast and human cervical cancer cell lines were plated at 5×10^3 per well in 96 well plates using media with 10% fetal bovine serum added and incubated for about 24 hr. Ten mM stock solutions of the compounds were prepared in 10% DMSO in distilled water. Serial drug dilutions were made in media containing 2% FBS to give a final […] concentration, added to the wells, and incubated at 37° C. for 5 days. Cytotoxicity was measured by neutral red reduction, as known in the art.

[4] = system: Me180 (68) cervical cancer cells; experiment: Cell proliferation assay (neutral red), Me180 cervical cancer cells; format: cell-based; conditions: Homo sapiens, ME-180, 120 h, read-out: Cytotoxicity, CC50, Cervical Cancer Cells Me180 (68)
Method: as §2

[5] = system: HeLa (18) cervical cancer cells; experiment: Cell proliferation assay (neutral red), HeLa cervical cancer cells; format: cell-based; conditions: Homo sapiens, 120 h, read-out: Cytotoxicity, CC50, Cervical Cancer Cells HeLa (18)
Method: as §2

[6] = system: Caski (16) cervical cancer cells; experiment: Cell proliferation assay (neutral red), Caski cervical cancer cells; format: cell-based; conditions: Homo sapiens, Ca-Ski, 120 h, read-out: Cytotoxicity, CC50, Cervical Cancer Cells Caski (16)
Method: as §2

HPV-11 = HPV-11 antiviral assay, DNA PCR in HEK 293 cells; format: cell-based; conditions: for Selectivity index: HPV-11 in HEK 293 cells
Excerpt: (§3) Assay. DNA PCR in HEK 293 cells infected with HPV-11, EC50, effective concentration 50%; CC50, 50% reduction of cell proliferation. DNA PCR by the methods reported by Chiang et al, Proc Natl Acad Sci USA. 1992. 89(13):5799-803 and Taylor and Morgan, Virology. 2003. 10; 315(1):103-9.

[7] = Cytotoxicity (reduction of cell proliferation) in HEK 293 cells; format: cell-based; conditions: human, read-out: CC50 (50% reduction of cell proliferation)
Excerpt: as §3

HFF cells = experiment: Cytotoxicity in HFF cells (HSV-2 table); conditions: read-out: CC50 (HFF cells); Table 10
[8] = Human alphaherpesvirus 2, HFF, 72 h

| Structure (SMILES) | Selectivity index (HSV-2) | EC50 (HSV-2; [8]) [nM] | CC50 [2] [nM] | Selectivity index (HIV-1LAI) | Selectivity index (HPV-11) | CC50 [7] [nM] | other results |
| --- | --- | --- | --- | --- | --- | --- | --- |
| CCCCCCCCCCCCCCCCCCOCCOP(=O)(COCCn1cnc2c(=O)[nH]c(N)nc21)OCc1ccccc1 (centres unmarked) [Bn-ODE-PMEG slow, benzyl octadecyloxyethyl 9-(2-phosphonomethoxyethyl)guanine] |  |  |  |  |  |  | CC50 ([1]; Table 7, read-out: CC50, 50% Cytotoxic concentration, MT2 cells T cell leukemia): < 10 nM; CC50 ([1]; Table 8, read-out: CC50 (MT-2 cells)): < 10 nM; EC50 (HIV-1LAI; read-out: EC50 (HIV antiviral activity in MT-2 cells), p24 reduction, four days after infection): < 0.01 nM |
| CCCCCCCCCCCCCCCCCCOCCOP(=O)(CO[C@H](CO)Cn1ccc(N)nc1=O)OCc1ccccc1 (stereo partly drawn) [Bn-ODE-(S)-HPMPC, benzyl octadecyloxyethyl 1-(S)-[(3-hydroxy-2-phosphonomethoxy)propyl]cytosine] | >48 | < 100 | 4800 | 6.7 |  |  |  |
| CCCCCCCCCCCCCCCCCCOCCOP(=O)(COCCn1cnc2c(=O)[nH]c(N)nc21)OCc1ccccc1 (racemic) [Bn-ODE-PMEG, benzyl octadecyloxyethyl 9-[2-(phosphonomethoxy)ethyl]guanine] | >10 | < 1000 |  |  | >151 | > 100000 | CC50 at 5 days [3]: 15000 ± 1500 nM; CC50 [4]: 31 ± 20 nM; CC50 [5]: 310 ± 110 nM; CC50 [6]: 15 ± 7 nM; EC50 (HPV-11; HEK293, DNA PCR in HEK 293 cells infected with HPV-11): 660 nM |
| CCCCCCCCCCCCCCCCCCOCCOP(=O)(COCCn1cnc2c(=O)[nH]c(N)nc21)OCc1ccccc1 (centres unmarked) [Bn-ODE-PMEG fast, benzyl octadecyloxyethyl 9-(2-phosphonomethoxyethyl)guanine] |  |  |  |  |  |  | EC50 (HSV-2): < 100 nM; CC50 (HFF cells): > 4000 nM |
| CCCCCCCCCCCCCCCCCCOCCOP(=O)(CO[C@H](CO)Cn1cnc2c(N)ncnc21)OCc1ccccc1 (stereo partly drawn) [Bn-ODE-(S)-HPMPA, benzyl octadecyloxyethyl 9-(S)-[3-hydroxy-2-(phosphonomethoxy)propyl]adenine] | >52 | < 100 | 5200 | 17.7 | >370 |  | CC50 at 5 days ([3]; normal human fibroblasts (HFF)): 5200 ± 3900 nM; CC50 ([4]; 5 days, neutral red): 210 ± 70 nM |
| CCCCCCCCCCCCCCCCCCOCCOP(=O)(COCCn1cnc2c(N)ncnc21)OCc1ccccc1 (centres unmarked) [Bn-ODE-PMEA, benzyl octadecyloxyethyl 9-[2-(phosphonomethoxy)ethyl]adenine] |  |  |  |  |  | > 100000 |  |
